From US12091653B2, “Strain of Glutamicibacter, originating from insects, capable of efficiently degrading bifenthrin” (Anhui Agricultural University, priority 2023, dated 2024) come the findings set out here.

The data set relates to E. grisescens larvae. In words: Toxicity testing of 2,4-di-tert-butylphenol in artificial food fed to E. grisescens larvae. The class given is in vivo, Ectropis grisescens. The note with it: 100 mg/L in sterile artificial food, 48 hours. As for the experimental part: A stock solution of 2,4-di-tert-butylphenol (purchased from Beijing Solarbio Science & Technology Co., Ltd., HPLC≥99%) was prepared following the preparation method for bifenthrin stock solution. This stock solution was added to sterile artificial food at a final concentration of 100 mg/L. This food was used to feed 30 healthy 4-5 aged E. grisescens larvae. The control group was fed normal sterile artificial food.

Consider `CC(C)(C)c1ccc(O)c(C(C)(C)C)c1` [2,4-di-tert-butylphenol], for which the “toxicity to E. grisescens larvae” value is “little to no toxicity”. For the setting “control food 93.33%”, the “survival rate of E. grisescens larvae” value is 94.45%.
